From PMC5513037, “Examining the influence of specificity ligands and ATP-competitive ligands on the overall effectiveness of bivalent kinase inhibitors” (Proteome Science, 2017)

Columns and labels:
Experiment in all cases: KAM-matrix competition in K562 lysate;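 as to 0.001 uM KAM: median log10 fold change of treatment over DMSO control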;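 as to 0.01 uM KAM: median log10 fold change of treatment over DMSO control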;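 as to 0.1 uM KAM: median log10 fold change of treatment over DMSO control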;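 as to 1 uM KAM: median log10 fold change of treatment over DMSO control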;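 as to 10 uM KAM: median log10 fold change of treatment over DMSO control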
Type in all cases: binding
BRD4 = biological target: T1, BRD4 (Homo sapiens, UniProt O60885);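 as to 0.001 uM KAM: median log10 fold change of treatment over DMSO control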;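 as to 0.01 uM KAM: median log10 fold change of treatment over DMSO control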;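 as to 0.1 uM KAM: median log10 fold change of treatment over DMSO control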;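 as to 1 uM KAM: median log10 fold change of treatment over DMSO control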;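 as to 10 uM KAM: median log10 fold change of treatment over DMSO control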
T1 construct: endogenous in cells; host or cells: K562
Protocol: (§1) Supplement 12953_2017_125_MOESM1_ESM.zip/MS_Supp Info.xlsx, sheet "KAM" | column: 10 uM KAM; 1 uM KAM; 0.1 uM KAM; 0.01 uM KAM; 0.001 uM KAM; RB50

CDK14 = biological target: T2, CDK14 (Homo sapiens, UniProt O94921)
T2 construct: endogenous in cells; host or cells: K562
T2 sequence (O94921 whole entry): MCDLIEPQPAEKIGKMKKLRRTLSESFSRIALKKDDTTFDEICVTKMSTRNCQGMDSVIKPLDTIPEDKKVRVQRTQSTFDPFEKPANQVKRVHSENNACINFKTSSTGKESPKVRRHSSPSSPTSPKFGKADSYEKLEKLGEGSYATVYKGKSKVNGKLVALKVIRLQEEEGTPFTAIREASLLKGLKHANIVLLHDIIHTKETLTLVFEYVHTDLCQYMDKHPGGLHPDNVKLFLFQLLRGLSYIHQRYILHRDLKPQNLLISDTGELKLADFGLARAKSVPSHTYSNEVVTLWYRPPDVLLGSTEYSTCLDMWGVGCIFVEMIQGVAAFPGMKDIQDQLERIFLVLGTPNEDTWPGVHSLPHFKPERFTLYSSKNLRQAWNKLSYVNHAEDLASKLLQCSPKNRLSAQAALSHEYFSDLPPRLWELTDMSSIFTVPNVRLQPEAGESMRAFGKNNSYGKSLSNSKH
Protocol: as §1

CIT = biological target: T3, CIT (Homo sapiens, UniProt O14578);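 as to 0.001 uM KAM: median log10 fold change of treatment over DMSO control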;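 as to 0.01 uM KAM: median log10 fold change of treatment over DMSO control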;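 as to 0.1 uM KAM: median log10 fold change of treatment over DMSO control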;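 as to 1 uM KAM: median log10 fold change of treatment over DMSO control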;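 as to 10 uM KAM: median log10 fold change of treatment over DMSO control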
T3 construct: endogenous in cells; host or cells: K562 lysate
T3 sequence (O14578 whole entry): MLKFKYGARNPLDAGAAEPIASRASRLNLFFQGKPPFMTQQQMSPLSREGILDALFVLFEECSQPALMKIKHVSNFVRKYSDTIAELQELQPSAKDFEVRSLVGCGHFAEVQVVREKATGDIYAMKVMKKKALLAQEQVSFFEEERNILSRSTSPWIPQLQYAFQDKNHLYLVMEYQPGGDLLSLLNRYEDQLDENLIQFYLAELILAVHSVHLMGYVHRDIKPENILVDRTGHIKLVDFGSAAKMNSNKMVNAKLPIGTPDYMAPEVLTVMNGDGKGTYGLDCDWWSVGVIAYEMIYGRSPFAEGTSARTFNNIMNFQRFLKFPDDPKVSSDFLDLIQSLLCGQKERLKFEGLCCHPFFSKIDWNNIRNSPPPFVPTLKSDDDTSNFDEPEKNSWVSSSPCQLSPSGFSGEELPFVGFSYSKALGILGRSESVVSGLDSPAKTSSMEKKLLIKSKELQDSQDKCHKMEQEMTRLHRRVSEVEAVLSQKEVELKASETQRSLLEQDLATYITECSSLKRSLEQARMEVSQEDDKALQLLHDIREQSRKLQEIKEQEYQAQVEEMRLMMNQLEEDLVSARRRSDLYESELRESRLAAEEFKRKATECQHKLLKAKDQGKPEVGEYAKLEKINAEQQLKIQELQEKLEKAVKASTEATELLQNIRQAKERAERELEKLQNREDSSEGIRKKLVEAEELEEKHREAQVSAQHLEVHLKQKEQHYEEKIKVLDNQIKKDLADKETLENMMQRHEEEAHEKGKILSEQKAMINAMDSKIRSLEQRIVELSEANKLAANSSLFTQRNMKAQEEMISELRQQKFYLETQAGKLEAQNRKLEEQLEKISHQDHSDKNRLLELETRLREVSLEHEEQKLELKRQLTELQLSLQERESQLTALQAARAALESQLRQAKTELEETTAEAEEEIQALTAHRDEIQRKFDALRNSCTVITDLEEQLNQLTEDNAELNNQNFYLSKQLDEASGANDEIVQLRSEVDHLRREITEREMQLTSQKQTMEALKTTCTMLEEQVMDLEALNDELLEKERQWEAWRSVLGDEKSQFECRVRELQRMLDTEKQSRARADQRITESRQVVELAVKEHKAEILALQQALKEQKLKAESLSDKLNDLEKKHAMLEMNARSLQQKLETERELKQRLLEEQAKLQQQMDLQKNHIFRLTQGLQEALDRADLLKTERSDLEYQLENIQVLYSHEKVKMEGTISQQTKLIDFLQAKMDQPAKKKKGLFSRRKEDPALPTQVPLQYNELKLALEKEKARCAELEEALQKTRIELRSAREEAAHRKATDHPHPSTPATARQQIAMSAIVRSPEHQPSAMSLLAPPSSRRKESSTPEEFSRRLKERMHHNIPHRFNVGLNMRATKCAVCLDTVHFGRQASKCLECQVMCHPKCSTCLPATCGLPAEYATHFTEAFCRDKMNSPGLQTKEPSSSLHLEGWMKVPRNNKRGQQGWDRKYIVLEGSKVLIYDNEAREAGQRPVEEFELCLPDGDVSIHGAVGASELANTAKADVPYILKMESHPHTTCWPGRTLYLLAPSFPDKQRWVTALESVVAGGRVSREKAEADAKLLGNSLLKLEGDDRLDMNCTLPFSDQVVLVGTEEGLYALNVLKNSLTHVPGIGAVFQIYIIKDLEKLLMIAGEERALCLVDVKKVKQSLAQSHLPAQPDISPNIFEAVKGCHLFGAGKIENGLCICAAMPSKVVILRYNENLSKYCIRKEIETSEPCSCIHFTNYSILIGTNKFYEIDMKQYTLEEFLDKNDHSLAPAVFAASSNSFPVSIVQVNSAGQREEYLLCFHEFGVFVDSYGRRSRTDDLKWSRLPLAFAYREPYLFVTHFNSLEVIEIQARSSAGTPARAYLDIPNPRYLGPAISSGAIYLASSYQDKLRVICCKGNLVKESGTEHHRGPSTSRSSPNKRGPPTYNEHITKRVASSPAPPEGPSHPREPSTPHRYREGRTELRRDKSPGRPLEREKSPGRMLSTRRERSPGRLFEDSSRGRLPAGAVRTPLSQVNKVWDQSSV
Protocol: as §1

MAP2K1 = biological target: T4, MAP2K1 (Homo sapiens, UniProt Q02750)
T4 construct: endogenous in cells; host or cells: K562
T4 sequence (Q02750 whole entry): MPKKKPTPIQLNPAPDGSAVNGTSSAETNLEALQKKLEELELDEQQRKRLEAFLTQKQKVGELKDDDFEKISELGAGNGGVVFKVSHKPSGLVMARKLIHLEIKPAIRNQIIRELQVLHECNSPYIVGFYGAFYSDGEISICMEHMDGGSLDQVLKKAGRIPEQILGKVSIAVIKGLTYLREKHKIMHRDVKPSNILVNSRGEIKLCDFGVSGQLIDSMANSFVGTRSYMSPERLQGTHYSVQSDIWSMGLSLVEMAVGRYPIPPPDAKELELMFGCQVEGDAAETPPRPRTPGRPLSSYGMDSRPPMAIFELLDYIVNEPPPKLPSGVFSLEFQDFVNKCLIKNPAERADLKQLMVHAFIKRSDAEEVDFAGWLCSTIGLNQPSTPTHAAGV
Protocol: as §1

PKN3 = biological target: T5, PKN3 (Homo sapiens, UniProt Q6P5Z2);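 as to 0.001 uM KAM: median log10 fold change of treatment over DMSO control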;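 as to 0.01 uM KAM: median log10 fold change of treatment over DMSO control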;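 as to 0.1 uM KAM: median log10 fold change of treatment over DMSO control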;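 as to 1 uM KAM: median log10 fold change of treatment over DMSO control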;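 as to 10 uM KAM: median log10 fold change of treatment over DMSO control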
T5 construct: endogenous in cells; host or cells: K562
T5 sequence (Q6P5Z2 whole entry): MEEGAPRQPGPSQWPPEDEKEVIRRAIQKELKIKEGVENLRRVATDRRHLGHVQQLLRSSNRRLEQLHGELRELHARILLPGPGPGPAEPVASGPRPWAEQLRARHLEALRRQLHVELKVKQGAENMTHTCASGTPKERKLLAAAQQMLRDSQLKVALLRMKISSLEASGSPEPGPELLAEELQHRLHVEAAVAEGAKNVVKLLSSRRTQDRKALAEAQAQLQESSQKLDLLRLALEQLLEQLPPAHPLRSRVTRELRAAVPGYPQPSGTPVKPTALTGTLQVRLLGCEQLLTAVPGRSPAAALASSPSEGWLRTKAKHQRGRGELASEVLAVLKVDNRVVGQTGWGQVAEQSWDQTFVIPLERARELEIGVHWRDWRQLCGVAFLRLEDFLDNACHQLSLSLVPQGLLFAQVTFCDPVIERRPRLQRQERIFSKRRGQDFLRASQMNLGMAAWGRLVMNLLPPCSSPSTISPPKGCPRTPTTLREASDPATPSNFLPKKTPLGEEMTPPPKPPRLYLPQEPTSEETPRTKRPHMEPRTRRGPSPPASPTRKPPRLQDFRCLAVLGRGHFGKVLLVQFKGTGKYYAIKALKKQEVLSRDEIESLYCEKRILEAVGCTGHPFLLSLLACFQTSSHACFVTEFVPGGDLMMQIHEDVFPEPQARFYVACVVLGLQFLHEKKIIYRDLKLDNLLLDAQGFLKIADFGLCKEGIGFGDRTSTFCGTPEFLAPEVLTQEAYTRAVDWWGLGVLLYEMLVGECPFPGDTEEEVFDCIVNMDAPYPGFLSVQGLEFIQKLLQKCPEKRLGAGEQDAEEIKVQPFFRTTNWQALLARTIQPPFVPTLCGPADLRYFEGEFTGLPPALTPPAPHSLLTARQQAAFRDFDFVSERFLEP
Protocol: as §1

TNK1 = biological target: T6, TNK1 (Homo sapiens, UniProt Q13470)
T6 construct: endogenous in cells; host or cells: K562
T6 sequence (Q13470 1-666): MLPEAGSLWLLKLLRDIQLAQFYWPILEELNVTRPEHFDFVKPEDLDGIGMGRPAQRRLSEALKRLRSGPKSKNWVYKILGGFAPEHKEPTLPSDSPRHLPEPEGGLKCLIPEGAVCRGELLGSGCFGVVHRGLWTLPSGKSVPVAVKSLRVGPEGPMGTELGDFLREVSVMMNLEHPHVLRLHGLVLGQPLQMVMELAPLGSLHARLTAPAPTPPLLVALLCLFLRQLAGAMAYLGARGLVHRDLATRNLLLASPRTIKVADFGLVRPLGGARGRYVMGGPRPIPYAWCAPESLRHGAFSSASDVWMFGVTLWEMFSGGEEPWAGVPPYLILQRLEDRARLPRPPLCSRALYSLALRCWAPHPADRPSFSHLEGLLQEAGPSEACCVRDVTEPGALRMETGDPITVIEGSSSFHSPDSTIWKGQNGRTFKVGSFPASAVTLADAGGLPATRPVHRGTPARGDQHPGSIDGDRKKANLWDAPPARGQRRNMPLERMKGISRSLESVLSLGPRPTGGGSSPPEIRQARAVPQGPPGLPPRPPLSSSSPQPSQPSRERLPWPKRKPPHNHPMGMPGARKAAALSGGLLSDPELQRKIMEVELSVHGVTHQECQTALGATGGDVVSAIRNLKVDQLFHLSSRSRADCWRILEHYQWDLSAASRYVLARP
Protocol: as §1

SCYL1 = biological target: T7, SCYL1 (Homo sapiens, UniProt Q96KG9); set-up: endogenous in cells; host or cells: K562;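 as to 0.001 uM KAM: median log10 fold change of treatment over DMSO control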;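 as to 0.01 uM KAM: median log10 fold change of treatment over DMSO control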;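 as to 0.1 uM KAM: median log10 fold change of treatment over DMSO control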;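 as to 1 uM KAM: median log10 fold change of treatment over DMSO control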;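 as to 10 uM KAM: median log10 fold change of treatment over DMSO control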
T7 sequence (Q96KG9 1-808): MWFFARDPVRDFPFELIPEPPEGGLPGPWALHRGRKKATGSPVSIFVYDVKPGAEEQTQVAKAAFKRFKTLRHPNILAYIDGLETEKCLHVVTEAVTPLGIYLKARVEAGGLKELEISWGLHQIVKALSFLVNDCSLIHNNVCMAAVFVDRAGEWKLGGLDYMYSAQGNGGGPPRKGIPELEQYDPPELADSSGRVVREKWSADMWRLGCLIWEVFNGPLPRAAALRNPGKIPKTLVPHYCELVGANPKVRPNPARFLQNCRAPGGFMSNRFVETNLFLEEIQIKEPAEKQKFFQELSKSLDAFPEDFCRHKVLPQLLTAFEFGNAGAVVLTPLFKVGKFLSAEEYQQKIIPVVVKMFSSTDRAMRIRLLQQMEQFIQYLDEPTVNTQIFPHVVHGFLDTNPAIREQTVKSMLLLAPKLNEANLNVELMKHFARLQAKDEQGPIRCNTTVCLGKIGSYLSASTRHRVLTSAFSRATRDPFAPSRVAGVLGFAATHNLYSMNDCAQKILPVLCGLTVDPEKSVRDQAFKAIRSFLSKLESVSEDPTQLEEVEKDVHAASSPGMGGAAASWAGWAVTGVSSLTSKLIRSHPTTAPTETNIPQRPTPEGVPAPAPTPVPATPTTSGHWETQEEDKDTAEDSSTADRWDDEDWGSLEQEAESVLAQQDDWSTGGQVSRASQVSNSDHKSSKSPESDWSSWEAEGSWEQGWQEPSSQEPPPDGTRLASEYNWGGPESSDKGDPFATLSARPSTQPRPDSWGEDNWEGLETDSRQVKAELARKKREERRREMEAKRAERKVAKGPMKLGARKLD
Protocol: as §1

[1] = KAM 0.001-10 uM, read-out: RB50 (the source's name)
[2] = read-out: RB50 (the source's name)

## N#CCc1ccc(Nc2nc(NCCCN)cc(Nc3cc(C4CC4)[nH]n3)n2)cc1 [KAM]
BRD4; [1]
  IC50: > 10 µM
BRD4; relative to 0 uM KAM = 0
  0.001 uM KAM: -0.02698
  0.01 uM KAM: 0.00122
  0.1 uM KAM: 0.04808
  1 uM KAM: 0.01224
  10 uM KAM: -0.001488
CDK14; 0.001 uM KAM
  median Log10 fold change: 0.09538
CDK14; 0.01 uM KAM
  median Log10 fold change: 0.03255
CDK14; 0.1 uM KAM
  median Log10 fold change: -0.148
CDK14; 1 uM KAM
  median Log10 fold change: -0.2642
CDK14; 10 uM KAM
  median Log10 fold change: -0.4049
CDK14; [2]
  IC50: 1660 nM
CIT; [1]
  IC50: > 10 µM
CIT; relative to 0 uM KAM = 0
  0.001 uM KAM: -0.03357
  0.01 uM KAM: -0.05687
  0.1 uM KAM: -0.1025
  1 uM KAM: -0.03677
  10 uM KAM: -0.04946
MAP2K1; 0.001 uM KAM
  median Log10 fold change: -0.01014
MAP2K1; 0.01 uM KAM
  median Log10 fold change: -0.05282
MAP2K1; 0.1 uM KAM
  median Log10 fold change: -0.2542
MAP2K1; 1 uM KAM
  median Log10 fold change: -0.5685
MAP2K1; 10 uM KAM
  median Log10 fold change: -0.7087
MAP2K1; [2]
  IC50: 164 nM
PKN3; [1]
  IC50: > 10 µM
PKN3; relative to 0 uM KAM = 0
  0.001 uM KAM: 0.01928
  0.01 uM KAM: 0.02728
  0.1 uM KAM: -0.02092
  1 uM KAM: -0.1078
  10 uM KAM: -0.2223
TNK1; 0.001 uM KAM
  median Log10 fold change: -0.003814
TNK1; 0.01 uM KAM
  median Log10 fold change: -0.02527
TNK1; 0.1 uM KAM
  median Log10 fold change: -0.2865
TNK1; 1 uM KAM
  median Log10 fold change: -0.4389
TNK1; 10 uM KAM
  median Log10 fold change: -0.4693
TNK1; [2]
  IC50: 199 nM
SCYL1; [1]
  IC50: > 10 µM
SCYL1; relative to 0 uM KAM = 0
  0.001 uM KAM: 0.01527
  0.01 uM KAM: 0.01732
  0.1 uM KAM: 0.09163
  1 uM KAM: 0.1255
  10 uM KAM: 0.1065
